Positions of bridges follow the written chain, without caps; N, C: chain ends. Residues, ends and D or L forms follow the SMILES beside them.

Here are results for four molecules from paper PMC11111691, “Cystine-knot peptide inhibitors of HTRA1 bind to a cryptic pocket within the active site region” (Nature Communications, 2024).

The target in the assay is T1, HTRA1^PD(SA) (Homo sapiens, UniProt Q92743, S328A).
T1 construct: The protease domains of human HTRA1 (HTRA1^PD; D161-K379); made in house; host or cells: E. coli
T1 sequence (Q92743 161-379 S328A): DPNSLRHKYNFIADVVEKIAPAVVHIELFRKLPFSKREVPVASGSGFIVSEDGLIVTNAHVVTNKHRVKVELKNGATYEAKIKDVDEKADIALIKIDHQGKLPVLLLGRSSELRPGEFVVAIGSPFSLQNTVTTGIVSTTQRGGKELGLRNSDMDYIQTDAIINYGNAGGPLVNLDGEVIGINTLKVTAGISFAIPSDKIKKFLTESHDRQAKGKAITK
In words: SPR binding kinetics to HTRA1^PD(SA). The settings on record: mean ± S.D. of three or more independent experiments; for koff / kon: SPR Biacore S200, 25 °C, single cycle kinetics, 1:1 Langmuir model; for Kd: SPR, calculated from kon and koff, CPI up to 10 µM. The protocol: Surface plasmon resonance (SPR) experiments were performed using a Biacore S200 instrument at 25 °C. His-tagged HTRA proteins were captured on a CM5 sensor chip using the His-capture kit (GE Healthcare). Protein concentrations used for immobilization were as follows; HTRA1^PD(SA), HTRA1^PD and HTRA1^PD-ABP 2 µg/ml with 60-s injections at 10 µl/min, HTRA2^PD/PDZ, HTRA3^PD/PDZ, and HTRA4^PD/PDZ 4 µg/ml with 60-s injections at 10 µl/min. Approximate immobilization levels of HTRA proteins were as follows; HTRA1^PD(SA) 700 RU, HTRA1^PD 900 RU, HTRA1^PD-ABP 900 RU, HTRA2^PD/PDZ 500 RU, HTRA3^PD/PDZ 500 RU, HTRA4^PD/PDZ 500 RU. All CKPs were prepared in HBS-EP buffer (0.01 M HEPES pH 7.4, 0.15 M NaCl, 3 mM EDTA, 0.005% v/v Surfactant P20). All CKP concentrations were injected for 120 s at a flow rate of 30 μl/min. A reference channel was subtracted from the HTRA-captured channel.
Binding kinetics of peptides to HTRA1^PD(SA) were determined by flowing six serial three-fold dilutions of peptide over the HTRA1^PD(SA) immobilized surface using a single cycle kinetics model. CKP maximum concentrations were as follows: 1A7, 1A8, 1C10, 2D5, and 3A7, 300 nM; 1G10-ENI and 1D3-ENI, 100 nM; 3B3, 3000 nM; and CPI, 10,000 nM. Data were analyzed using GE BIA evaluation software using a 1:1 Langmuir binding model. The KD values, calculated from the determined kon and koff values, were the mean ± S.D. of 3–4 independent experiments.

For the molecule `CC[C@H](C)[C@H](NC(=O)[C@@H]1CCCN1C(=O)[C@H](CC(=O)O)NC(=O)[C@H](C)NC(=O)[C@@H](N)Cc1c[nH]cn1)C(=O)N[C@H]1CSSC[C@@H]2NC(=O)[C@H](Cc3ccccc3)NC(=O)[C@H](Cc3c[nH]c4ccccc34)NC(=O)[C@H](C)NC(=O)CNC(=O)[C@H](CO)NC(=O)[C@@H]3CSSC[C@@H](C(=O)NCC(=O)N4CCC[C@H]4C(=O)NCC(=O)N[C@@H](Cc4c[nH]c5ccccc45)C(=O)N[C@@H](CCCNC(=N)N)C(N)=O)NC(=O)[C@H](CO)NC(=O)[C@H](Cc4c[nH]c5ccccc45)NC(=O)[C@H]([C@@H](C)O)NC(=O)[C@H](C)NC(=O)[C@H](Cc4ccc(O)cc4)NC(=O)[C@H](Cc4ccc(O)cc4)NC(=O)[C@H](CSSC[C@H](NC(=O)[C@@H]4CCCN4C(=O)[C@H](CCCCN)NC(=O)[C@H](CC(N)=O)NC1=O)C(=O)N[C@@H](CCCCN)C(=O)N[C@@H]([C@@H](C)O)C(=O)N[C@@H](Cc1c[nH]cn1)C(=O)N[C@@H](CC(=O)O)C(=O)N[C@@H](CC(=O)O)C(=O)N3)NC(=O)[C@H](C)NC(=O)[C@H](CCC(N)=O)NC2=O` [1A7] (H-HADPICNKPCKTHDDCSGAWFCQACYYATWSCGPGWR-NH2; disulfide 6-22, 10-25, 16-32), the koff is 6.5 ± 0.7 s-1 x10-4, the kon is on record as 9.4 ± 1.3 M-1 s-1 x104 and the Kd (commonly the constant that tells how readily two partners part at equilibrium) is 7 ± 0.5 nM.

`CC[C@H](C)[C@H](NC(=O)[C@@H]1CCCN1C(=O)[C@H](CC(=O)O)NC(=O)[C@H](C)NC(=O)[C@@H](N)Cc1c[nH]cn1)C(=O)N[C@H]1CSSC[C@@H]2NC(=O)[C@H](Cc3ccccc3)NC(=O)[C@H](Cc3c[nH]c4ccccc34)NC(=O)[C@H](C)NC(=O)CNC(=O)[C@H](CO)NC(=O)[C@@H]3CSSC[C@@H](C(=O)NCC(=O)N4CCC[C@H]4C(=O)NCC(=O)N[C@@H](CCCNC(=N)N)C(=O)N[C@@H](Cc4ccc(O)cc4)C(N)=O)NC(=O)[C@H](CO)NC(=O)[C@H](Cc4c[nH]c5ccccc45)NC(=O)[C@H]([C@@H](C)O)NC(=O)[C@H](C)NC(=O)[C@H](Cc4ccc(O)cc4)NC(=O)[C@H](Cc4ccc(O)cc4)NC(=O)[C@H](CSSC[C@H](NC(=O)[C@@H]4CCCN4C(=O)[C@H](CCCCN)NC(=O)[C@H](CC(N)=O)NC1=O)C(=O)N[C@@H](CCCCN)C(=O)N[C@@H]([C@@H](C)O)C(=O)N[C@@H](Cc1c[nH]cn1)C(=O)N[C@@H](CC(=O)O)C(=O)N[C@@H](CC(=O)O)C(=O)N3)NC(=O)[C@H](C)NC(=O)[C@H](CCC(N)=O)NC2=O` [1C10] (H-HADPICNKPCKTHDDCSGAWFCQACYYATWSCGPGRY-NH2; disulfide 6-22, 10-25, 16-32): the koff is reported as 4.7 ± 0.1 s-1 x10-4, the kon was 7.7 ± 2.4 M-1 s-1 x104 and the Kd is 6.5 ± 2.2 nM.

For `CC[C@H](C)[C@H](NC(=O)[C@@H]1CCCN1C(=O)[C@H](CC(=O)O)NC(=O)[C@H](C)NC(=O)[C@@H](N)Cc1c[nH]cn1)C(=O)N[C@H]1CSSC[C@@H]2NC(=O)[C@H](Cc3ccccc3)NC(=O)[C@H](Cc3c[nH]c4ccccc34)NC(=O)[C@H](C)NC(=O)CNC(=O)[C@H](CO)NC(=O)[C@@H]3CSSC[C@@H](C(=O)N[C@@H](CCC(N)=O)C(=O)N[C@@H](Cc4c[nH]c5ccccc45)C(=O)N4CCC[C@H]4C(=O)N4CCC[C@H]4C(=O)N[C@@H](CCCNC(=N)N)C(=O)N[C@@H](Cc4c[nH]cn4)C(=O)N[C@@H](CCCNC(=N)N)C(=O)N[C@@H](CC(=O)O)C(N)=O)NC(=O)[C@H](CO)NC(=O)[C@H](Cc4c[nH]c5ccccc45)NC(=O)[C@H]([C@@H](C)O)NC(=O)[C@H](C)NC(=O)[C@H](Cc4ccc(O)cc4)NC(=O)[C@H](Cc4ccc(O)cc4)NC(=O)[C@H](CSSC[C@H](NC(=O)[C@@H]4CCCN4C(=O)[C@H](CCCCN)NC(=O)[C@H](CC(N)=O)NC1=O)C(=O)N[C@@H](CCCCN)C(=O)N[C@@H]([C@@H](C)O)C(=O)N[C@@H](Cc1c[nH]cn1)C(=O)N[C@@H](CC(=O)O)C(=O)N[C@@H](CC(=O)O)C(=O)N3)NC(=O)[C@H]([C@@H](C)O)NC(=O)[C@H](CCC(N)=O)NC2=O` [2D5] (H-HADPICNKPCKTHDDCSGAWFCQTCYYATWSCQWPPRHRD-NH2; disulfide 6-22, 10-25, 16-32), the koff is recorded as 1.0 ± 0.1 s-1 x10-4, the kon was 10.5 ± 0.9 M-1 s-1 x104 and the dissociation constant Kd is 0.94 ± 0.12 nM.

Turning to `CC[C@H](C)[C@H](NC(=O)[C@@H]1CCCN1C(=O)[C@H](CC(=O)O)NC(=O)[C@H](C)NC(=O)[C@@H](N)Cc1c[nH]cn1)C(=O)N[C@H]1CSSC[C@@H]2NC(=O)[C@H](Cc3ccccc3)NC(=O)[C@H](Cc3c[nH]c4ccccc34)NC(=O)[C@H](C)NC(=O)CNC(=O)[C@H](CO)NC(=O)[C@@H]3CSSC[C@@H](C(=O)NCC(=O)N4CCC[C@H]4C(=O)N[C@@H](Cc4ccc(O)cc4)C(=O)N[C@H](C(=O)NCC(N)=O)C(C)C)NC(=O)[C@H](CCCNC(=N)N)NC(=O)[C@H](Cc4c[nH]c5ccccc45)NC(=O)[C@H](CC(N)=O)NC(=O)[C@H](C)NC(=O)[C@H](Cc4ccccc4)NC(=O)[C@H](Cc4ccc(O)cc4)NC(=O)[C@H](CSSC[C@H](NC(=O)[C@@H]4CCCN4C(=O)[C@H](CCCCN)NC(=O)[C@H](CC(N)=O)NC1=O)C(=O)N[C@@H](CCCCN)C(=O)N[C@@H]([C@@H](C)O)C(=O)N[C@@H](Cc1c[nH]cn1)C(=O)N[C@@H](CC(=O)O)C(=O)N[C@@H](CC(=O)O)C(=O)N3)NC(=O)[C@H](C)NC(=O)[C@H](CCC(N)=O)NC2=O` [3A7] (H-HADPICNKPCKTHDDCSGAWFCQACYFANWRCGPYVG-NH2; disulfide 6-22, 10-25, 16-32), the koff is recorded as 2.8 ± 0.2 s-1 x10-4, the kon is listed as 4.5 ± 0.3 M-1 s-1 x104 and the dissociation constant (Kd) is 6.2 ± 0.2 nM.
